# Results taken from patent US10251395B2, “Substituted furano-/thienocycloalkylamino-2-pyrimidine derivatives and use thereof for controlling undesired plant growth” (Bayer CropScience Aktiengesellschaft, priority 2015, dated 2019).
# Legend:
# Type in all cases: in vivo
# Ipomoea purpurea [1] = assay: Pre-emergence herbicidal effect; conditions: scored visually after 3 weeks
# Summary of the method: (§1)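 Seeds sown in sandy loam in wood-fiber pots and covered with soil; WP or EC formulations applied to the soil surface as aqueous suspension or emulsion at 600 to 800 L/ha water with 0.2% wetting agent. Greenhouse, 3 weeks; damage scored visually versus untreated controls (100% = plants died, 0% = like control).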
# Cyperus esculentus = assay: Pre-emergence herbicidal effect; conditions: scored visually after 3 weeks
# Summary of the method: as §1
# Veronica persica [2] = assay: Pre-emergence herbicidal effect; conditions: scored visually after 3 weeks
# Summary of the method: as §1
# Matricaria inodora [3] = assay: Pre-emergence herbicidal effect; conditions: scored visually after 3 weeks
# Summary of the method: as §1
# Stellaria media [4] = assay: Pre-emergence herbicidal effect; conditions: scored visually after 3 weeks
# Summary of the method: as §1
# Viola tricolor [5] = assay: Pre-emergence herbicidal effect; conditions: scored visually after 3 weeks
# Summary of the method: as §1
# Veronica persica [6] = assay: Post-emergence herbicidal effect; conditions: assessed visually after about 3 weeks vs untreated controls
# Summary of the method: (§2)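 Ratings are visual percentages taken around 3 weeks after treatment, compared with untreated plants. Treatment consisted of an aqueous spray of WP or EC formulations, with 0.2% wetting agent, onto one-leaf-stage weeds raised from seed in sandy loam.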
# Setaria viridis [7] = assay: Post-emergence herbicidal effect; conditions: 320 g/ha, assessed visually after about 3 weeks vs untreated controls
# Summary of the method: as §2
# Abutilon theophrasti [8] = assay: Post-emergence herbicidal effect; conditions: assessed visually after about 3 weeks vs untreated controls
# Summary of the method: as §2
# Stellaria media [9] = assay: Post-emergence herbicidal effect; conditions: assessed visually after about 3 weeks vs untreated controls
# Summary of the method: as §2
# Amaranthus retroflexus [10] = assay: Post-emergence herbicidal effect; conditions: assessed visually after about 3 weeks vs untreated controls
# Summary of the method: as §2
# Viola tricolor [11] = assay: Post-emergence herbicidal effect; conditions: assessed visually after about 3 weeks vs untreated controls
# Summary of the method: as §2
# Lolium multiflorum = assay: Pre-emergence herbicidal effect; conditions: Dosage 320 g/ha, scored visually after 3 weeks
# Summary of the method: as §1
# Setaria viridis [12] = assay: Pre-emergence herbicidal effect; conditions: scored visually after 3 weeks
# Summary of the method: as §1
# Alopecurus myosuroides = assay: Pre-emergence herbicidal effect; conditions: Dosage 320 g/ha, scored visually after 3 weeks
# Summary of the method: as §1
# Echinochloa crus-galli = assay: Pre-emergence herbicidal effect; conditions: scored visually after 3 weeks
# Summary of the method: as §1
# Abutilon theophrasti [13] = assay: Pre-emergence herbicidal effect; conditions: scored visually after 3 weeks
# Summary of the method: as §1
# Amaranthus retroflexus [14] = assay: Pre-emergence herbicidal effect; conditions: Dosage 320 g/ha, scored visually after 3 weeks
# Summary of the method: as §1
# Polygonum convolvulus = assay: Pre-emergence herbicidal effect; conditions: Dosage 320 g/ha, scored visually after 3 weeks
# Summary of the method: as §1
# Ipomoea purpurea [15] = assay: Post-emergence herbicidal effect; conditions: assessed visually after about 3 weeks vs untreated controls
# Summary of the method: as §2
# Matricaria inodora [16] = assay: Post-emergence herbicidal effect; conditions: assessed visually after about 3 weeks vs untreated controls
# Summary of the method: as §2
SMILES,PHBPU pre-emergence efficacy (herbicidal activity) (Ipomoea purpurea [1]; Dosage 80 g/ha),PHBPU pre-emergence efficacy (herbicidal activity) (Ipomoea purpurea [1]; Dosage 320 g/ha),CYPES pre-emergence efficacy (herbicidal activity) (Cyperus esculentus; Dosage 320 g/ha),VERPE pre-emergence efficacy (herbicidal activity) (Veronica persica [2]; Dosage 80 g/ha),VERPE pre-emergence efficacy (herbicidal activity) (Veronica persica [2]; Dosage 320 g/ha),MATIN pre-emergence efficacy (herbicidal activity) (Matricaria inodora [3]; Dosage 80 g/ha),MATIN pre-emergence efficacy (herbicidal activity) (Matricaria inodora [3]; Dosage 320 g/ha),STEME pre-emergence efficacy (herbicidal activity) (Stellaria media [4]; Dosage 80 g/ha),STEME pre-emergence efficacy (herbicidal activity) (Stellaria media [4]; Dosage 320 g/ha),VIOTR pre-emergence efficacy (herbicidal activity) (Viola tricolor [5]; Dosage 80 g/ha),VIOTR pre-emergence efficacy (herbicidal activity) (Viola tricolor [5]; Dosage 320 g/ha),post-emergence efficacy VERPE (Veronica persica [6]; 320 g/ha),post-emergence efficacy ABUTH (Abutilon theophrasti [8]; 80 g/ha),post-emergence efficacy ABUTH (Abutilon theophrasti [8]; 320 g/ha),post-emergence efficacy STEME (Stellaria media [9]; 80 g/ha),post-emergence efficacy STEME (Stellaria media [9]; 320 g/ha),post-emergence efficacy AMARE (Amaranthus retroflexus [10]; 80 g/ha),post-emergence efficacy AMARE (Amaranthus retroflexus [10]; 320 g/ha),post-emergence efficacy VIOTR (Viola tricolor [11]; 80 g/ha),post-emergence efficacy VIOTR (Viola tricolor [11]; 320 g/ha),other results
Cc1cc2c(s1)CCCC2Nc1nc(N)c(S(C)(=O)=O)c(C(F)F)n1 (racemic) [compound 287],90%,100%,100%,100%,100%,100%,100%,90%,100%,90%,100%,100%,80%,80%,80%,100%,90%,100%,100%,100%,CYPES pre-emergence efficacy (herbicidal activity) (Cyperus esculentus; Dosage 80 g/ha): 80%; post-emergence efficacy VERPE (Veronica persica [6]; 80 g/ha): 80%; post-emergence efficacy SETVI (Setaria viridis [7]): 80%
CC(=NO)c1cnc(NC2CCCc3sc(C)cc32)nc1N (stereo not drawn) [compound 286],100%,50%,70%,100%,100%,80%,100%,60%,100%,100%,100%,100%,90%,90%,70%,100%,90%,90%,90%,90%,LOLMU pre-emergence efficacy (herbicidal activity) (Lolium multiflorum): 80%; SETVI pre-emergence efficacy (herbicidal activity) (Setaria viridis [12]; Dosage 320 g/ha): 100%; ALOMY pre-emergence efficacy (herbicidal activity) (Alopecurus myosuroides): 60%; ECHCG pre-emergence efficacy (herbicidal activity) (Echinochloa crus-galli; Dosage 320 g/ha): 100%; ABUTH pre-emergence efficacy (herbicidal activity) (Abutilon theophrasti [13]; Dosage 80 g/ha): 70%; ABUTH pre-emergence efficacy (herbicidal activity) (Abutilon theophrasti [13]; Dosage 320 g/ha): 60%; AMARE pre-emergence efficacy (herbicidal activity) (Amaranthus retroflexus [14]): 100%; POLCO pre-emergence efficacy (herbicidal activity) (Polygonum convolvulus): 100%; post-emergence efficacy PHBPU (Ipomoea purpurea [15]; 80 g/ha): 70%; post-emergence efficacy PHBPU (Ipomoea purpurea [15]; 320 g/ha): 70%; post-emergence efficacy MATIN (Matricaria inodora [16]; 80 g/ha): 80%; post-emergence efficacy MATIN (Matricaria inodora [16]; 320 g/ha): 90%
CC(=O)c1cnc(NC2CCCc3sccc32)nc1N (stereo not drawn) [compound 301],100%,100%,70%,100%,100%,100%,100%,100%,100%,100%,100%,100%,,,60%,60%,80%,80%,80%,90%,LOLMU pre-emergence efficacy (herbicidal activity) (Lolium multiflorum): 100%; SETVI pre-emergence efficacy (herbicidal activity) (Setaria viridis [12]; Dosage 80 g/ha): 100%; SETVI pre-emergence efficacy (herbicidal activity) (Setaria viridis [12]; Dosage 320 g/ha): 100%; ALOMY pre-emergence efficacy (herbicidal activity) (Alopecurus myosuroides): 80%; ECHCG pre-emergence efficacy (herbicidal activity) (Echinochloa crus-galli; Dosage 80 g/ha): 70%; ECHCG pre-emergence efficacy (herbicidal activity) (Echinochloa crus-galli; Dosage 320 g/ha): 100%; post-emergence efficacy PHBPU (Ipomoea purpurea [15]; 320 g/ha): 90%; post-emergence efficacy MATIN (Matricaria inodora [16]; 320 g/ha): 60%
